# Columns and labels:
# tyrosinase = assay: Tyrosinase inhibition assay; assay type: biochemical
# Method: A tyrosinase inhibition assay was performed to determine the tyrosinase inhibition potential of an extract derived from sugar cane of the present disclosure. […]
# To measure tyrosinase inhibition potential of an extract derived from sugar cane of the present disclosure, tyrosinase was added to a mixture of a test sample solution containing an extract derived from sugar cane, L-DOPA, and phosphate buffer (pH 6.8), which was then incubated at 37° C. for 5 hours. Tyrosinase activity was determined through the amount of dopachrome production in the mixture, which was measured by optical density at 450 nm. Dopachrome is a cyclization product of L-DOPA, an intermediate in the biosynthesis of melanin.
# MMP-1 = MMP-1 inhibition assay in UV irradiated human skin cells (zymography); assay type: cell-based
# Method: The UV protection function of an extract derived from sugar cane of the present disclosure on skin using human skin cells was investigated. MMP-1, one of the key matrix metalloproteinases (MMPs) that is viewed as an indicator for tissue integrity breakdown and wrinkle formation, was used as a biomarker for skin damage. MMP-1 inhibitors have been related to skin aging prevention and therapy. An MMP-1 inhibition assay was performed to determine the MMP-1 inhibition potential of an extract derived from sugar cane of the present disclosure. […] In order to determine the UV protection ability of a test sample of an extract derived from sugar cane of the present disclosure, human skin cells were treated with (and without) the test sample followed by UV irradiation. The treated cells were then disrupted by subjection to several freeze-thaw cycles, and the proteins were obtained by centrifugation. Using the collected lysate, zymography was used to determine the enzymatic activity of secreted MMP-1. In the zymography, the proteins were separated by electrophoresis under denaturing (sodium dodecyl sulfate, SDS), nonreducing conditions. The separation occurred in a polyacrylamide gel containing a collagen substrate that was co-polymerized with the acrylamide. […] After electrophoresis, the gel was washed and subsequently incubated in an appropriate activation buffer. During this incubation, the concentrated, renatured MMPs in the gel digested the collagen substrate. After incubation, the gel was stained with Coomassie® Blue, and the MMPs were detected as clear bands against a blue background of undegraded substrate. The clear bands in the gel was quantified by densitometry. Avobenzone, a known MMP-1 inhibitor, was used as an assay control.
structure (smiles),measurement,setting,value
"O=c1cc(CO)occ1O [Kojic Acid, Kojic acid]",Concentration inducing the maximum inhibition,tyrosinase,1000 µM
same,Inhibition (%) Result,tyrosinase; Conc. 3.91 uM,−11.66%
same,Inhibition (%) Result,tyrosinase; Conc. 7.81 uM,−9.33%
same,Inhibition (%) Result,tyrosinase; Conc. 15.63 uM,−4.66%
same,Inhibition (%) Result,tyrosinase; Conc. 31.25 uM,1.23%
same,Inhibition (%) Result,tyrosinase; Conc. 62.50 uM,12.35%
same,Inhibition (%) Result,tyrosinase; Conc. 125.00 uM,30.45%
same,Inhibition (%) Result,tyrosinase; Conc. 250.00 uM,52.40%
same,Inhibition (%) Result,tyrosinase; Conc. 500.00 uM,75.45%
same,Inhibition (%) Result,tyrosinase; Conc. 1000.00 uM,90.12%
same,Maximum inhibition achieved,tyrosinase; at 1000 μM,90.12%
"COc1ccc(C(=O)CC(=O)c2ccc(C(C)(C)C)cc2)cc1 [avobenzone, Avobenzone]",Concentration inducing the maximum inhibition,MMP-1,10%
same,MMP-1 inhibition (%) Average,MMP-1; Conc 0.31 %,5.0%
same,MMP-1 inhibition (%) Replicate 2,MMP-1; Conc 0.31 %,5.0%
same,MMP-1 inhibition (%) Average,MMP-1; Conc 0.63 %,44.1%
same,MMP-1 inhibition (%) Replicate 1,MMP-1; Conc 0.63 %,22.51%
same,MMP-1 inhibition (%) Replicate 2,MMP-1; Conc 0.63 %,65.72%
same,MMP-1 inhibition (%) Average,MMP-1; Conc 1.25 %,48.5%
same,MMP-1 inhibition (%) Replicate 1,MMP-1; Conc 1.25 %,56.96%
same,MMP-1 inhibition (%) Replicate 2,MMP-1; Conc 1.25 %,39.99%
same,MMP-1 inhibition (%) Average,MMP-1; Conc 2.50 %,79.8%
same,MMP-1 inhibition (%) Replicate 1,MMP-1; Conc 2.50 %,77.44%
same,MMP-1 inhibition (%) Replicate 2,MMP-1; Conc 2.50 %,82.22%
same,MMP-1 inhibition (%) Average,MMP-1; Conc 5.00 %,90.7%
same,MMP-1 inhibition (%) Replicate 1,MMP-1; Conc 5.00 %,85.34%
same,MMP-1 inhibition (%) Replicate 2,MMP-1; Conc 5.00 %,96.03%
same,MMP-1 inhibition (%) Average,MMP-1; Conc 10.00 %,97.5%
same,MMP-1 inhibition (%) Replicate 1,MMP-1; Conc 10.00 %,95.44%
same,MMP-1 inhibition (%) Replicate 2,MMP-1; Conc 10.00 %,99.52%
same,Maximum inhibition achieved,MMP-1; at 10%,97.50%
same,EC50,MMP-1; effective concentration at 50% of maximal inhibition,1.22%

# Source: patent US12370232B2, “Use of polyphenol containing sugar cane extracts for preventing, improving or treating a skin condition” (priority 2017, dated 2025)
